Laboratory results published in paper PMC12040169 (PLOS Biology, 2025).

Assay: in vitro
Settings: human, hela cells, % viability

Structure (SMILES)	viability at 28.5 h, 10 µM [%]
O=S(=O)(Nc1nnn[nH]1)c1ccc(-c2cc(C(F)(F)F)on2)s1 [CBK062393]	96.9
O=S(=O)(c1csc2ccccc12)N1CCOCC1 [CBK062401]	90.7
CN1CCN(S(=O)(=O)c2ccc(Oc3ccccc3)cc2)CC1 [CBK062430]	113
CN1CCN(S(=O)(=O)c2ccc(N3CCOCC3)nc2)CC1 [CBK062434]	87.9
CN1CCN(S(=O)(=O)c2ccc(Br)cc2C(F)(F)F)CC1 [CBK062437]	90.7
CC(CCCC(C)(C)O)NS(=O)(=O)c1ccc(-c2ccon2)s1 (stereo not shown) [CBK062466]	93.8
Cc1c(S(=O)(=O)NC(C)CCCC(C)(C)O)sc2ccc(Cl)cc12 (stereo not shown) [CBK062467]	93.5
O=c1ccc2cc(S(=O)(=O)Nc3ccc4[nH]ccc4c3)ccc2o1 [CBK062503]	54.8
Cc1noc(C)c1S(=O)(=O)Nc1ccc2[nH]ncc2c1 [CBK062518]	87.8
O=S(=O)(Nc1ccc2[nH]ncc2c1)c1ccc(Br)cc1C(F)(F)F [CBK062529]	100
O=S(=O)(Nc1nnn[nH]1)c1csc2ccccc12 [CBK062590]	103
COc1ccc(CCNC(=O)[C@@H]2Cc3c([nH]c4ccccc34)[C@]3(CCN(Cc4ccccc4)C3)N2)cc1OC [CBK062620]	114
Cn1c(-c2nonc2N)nc2ccccc21 [CBK062642]	94.5
O=C(Nc1nonc1-c1nc2ccccc2n1CCOC(=O)c1ccc(F)cc1)c1ccc(F)cc1 [CBK062653]	102
Nc1nonc1-c1nc2ccccc2[nH]1 [CBK062657]	89.4
Cc1nc2n(CC#N)c3ccccc3n2n1 [CBK062670]	99.7
Cn1nccc1NS(=O)(=O)c1cc(C(=O)O)c(Cl)cc1F [CBK062712]	106
CS(=O)(=O)Nc1ccc2[nH]ccc2c1 [CBK062728]	91.2
CC(C)CN1CCN(S(=O)(=O)c2ccc(C(F)(F)F)cc2Cl)CC1 [CBK062740]	113
CCOc1ccc(S(=O)(=O)N2CCCN(Cc3cccc(C(F)(F)F)c3)CC2)c2cccnc12 [CBK062760]	84.3

Structure (SMILES)	viability at 28.5 h, 10 µM [%]
CC(=O)c1ccc(CN2CCCN(S(=O)(=O)c3ccc(C(=O)c4ccccc4)cc3)CC2)cc1 [CBK062764]	109
COC(=O)c1cc(CN2CCCN(S(=O)(=O)c3ccc(C(=O)c4ccccc4)cc3)CC2)cn1C [CBK062770]	97.2
CCOc1ccc(S(=O)(=O)N2CCN(Cc3cc(F)c(F)c(F)c3)CC2)c2cccnc12 [CBK062795]	95.4
COC(=O)CCc1ccc(S(=O)(=O)N2CCN(Cc3csc(-c4ccccc4)n3)CC2)cc1 [CBK062812]	91.8
CCC(C)(C)c1ccc(S(=O)(=O)N2CCN(Cc3ccc(C(C)=O)cc3)CC2)cc1 [CBK062826]	95.1
CCC(C)(C)c1ccc(S(=O)(=O)N2CCN(Cc3cc(C(=O)OC)n(C)c3)CC2)cc1 [CBK062831]	96.3
CCC(C)(C)c1ccc(S(=O)(=O)N2CCCN(Cc3cn(C)c4ccccc34)CC2)cc1 [CBK062871]	91.2
CCCC(=O)c1ccc(S(=O)(=O)N2CCCN(Cc3cccc4cccnc34)CC2)cc1 [CBK062909]	93
CCCC(=O)c1ccc(S(=O)(=O)N2CCCN(Cc3c[nH]nc3-c3ccc(F)cc3)CC2)cc1 [CBK062911]	121
CCCC(=O)c1ccc(S(=O)(=O)N2CCCN(Cc3c(-c4ccccc4)nc4sccn34)CC2)cc1 [CBK062912]	119
CCCC(=O)c1ccc(S(=O)(=O)N2CCCN(Cc3ccc(F)cc3Cl)CC2)cc1 [CBK062917]	116
CCCC(=O)c1ccc(S(=O)(=O)N2CCCN(Cc3ccc(OC)c(F)c3)CC2)cc1 [CBK062926]	93.7
Cc1c(F)cccc1CN1CCN(S(=O)(=O)c2ccc(C(=O)c3ccccc3)cc2)CC1 [CBK062929]	102
Cc1cc(CN2CCN(S(=O)(=O)c3ccc(C(=O)c4ccccc4)cc3)CC2)cc(C)c1O [CBK062933]	90.4
CCOc1ccc(S(=O)(=O)N2CCCN(CCCC#N)CC2)c2cccnc12 [CBK062935]	98.5
O=S(=O)(c1ccc(C(F)(F)F)cc1Cl)N1CCCN(Cc2ccnc3ccccc23)CC1 [CBK062942]	101
O=S(=O)(c1ccc(C(F)(F)F)cc1Cl)N1CCCN(Cc2ccc(F)cc2F)CC1 [CBK062946]	91.8
O=C(c1ccccc1)c1ccc(S(=O)(=O)N2CCN(Cc3ccc(O)c(F)c3)CC2)cc1 [CBK062948]	95.8
N#Cc1ccc(CN2CCCN(S(=O)(=O)c3ccc(C(=O)c4ccccc4)cc3)CC2)cc1 [CBK062962]	89.9
CCC(C)(C)c1ccc(S(=O)(=O)N2CCN(Cc3ccc(O)c(F)c3)CC2)cc1 [CBK062968]	91.7

Structure (SMILES)	viability at 28.5 h, 10 µM [%]
COC(=O)CCc1ccc(S(=O)(=O)N2CCN(Cc3cccc4cccnc34)CC2)cc1 [CBK062969]	87.8
O=c1[nH]cc(CN2CCCN(S(=O)(=O)c3ccc(C(F)(F)F)cc3Cl)CC2)c(=O)[nH]1 [CBK062975]	106
COC(=O)CCc1ccc(S(=O)(=O)N2CCCN(Cc3cccc(Br)c3)CC2)cc1 [CBK062981]	102
COC(=O)CCc1ccc(S(=O)(=O)N2CCCN(Cc3c[nH]c4ccc(OC)cc34)CC2)cc1 [CBK062985]	98.1
COC(=O)CCc1ccc(S(=O)(=O)N2CCCN(Cc3cc(F)cc(F)c3)CC2)cc1 [CBK062990]	106
COC(=O)CCc1ccc(S(=O)(=O)N2CCCN(Cc3c[nH]c4ccc(Cl)cc34)CC2)cc1 [CBK063000]	99.2
COC(=O)CCc1ccc(S(=O)(=O)N2CCCN(Cc3c(-c4ccccc4)noc3C)CC2)cc1 [CBK063011]	97.3
CCOC(=O)C1CC1CN1CCCN(S(=O)(=O)c2ccc(C(=O)c3ccccc3)cc2)CC1 (stereo not shown) [CBK063028]	88.6
CCOc1ccc(S(=O)(=O)N2CCCN(Cc3c[nH]c(C)n3)CC2)c2cccnc12 [CBK063031]	101
Cc1nc[nH]c1CN1CCCN(S(=O)(=O)c2ccc(C(F)(F)F)cc2Cl)CC1 [CBK063035]	112
O=S(=O)(c1ccc(C(F)(F)F)cc1Cl)N1CCCN(Cc2ccc3cccc(O)c3n2)CC1 [CBK063036]	101
O=S(=O)(c1ccc(-c2ccccc2)cc1)N1CCCN(CCCO)CC1 [CBK063043]	102
CCOc1ccc(S(=O)(=O)N2CCN(CCCC#N)CC2)c2cccnc12 [CBK063046]	91.6
CCC(C)(C)c1ccc(S(=O)(=O)N2CCCN(Cc3ccc4cccc(O)c4n3)CC2)cc1 [CBK063051]	90.5
Cc1noc(-c2ccccc2)c1CN1CCCN(S(=O)(=O)c2ccc(C(F)(F)F)cc2Cl)CC1 [CBK063104]	103
CC(=O)c1ccc(CN2CCCN(S(=O)(=O)c3ccc(C(F)(F)F)cc3Cl)CC2)cc1 [CBK063106]	104
COc1ccc(CN2CCCN(S(=O)(=O)c3ccc(-c4ccccc4)cc3)CC2)cc1F [CBK063108]	111
O=S(=O)(c1ccc(-c2ccccc2)cc1)N1CCCN(Cc2ccc(F)c(C(F)(F)F)c2)CC1 [CBK063115]	98.9
